Assay results from patent US20250367173A1, “ECTONUCLEOTIDE PYROPHOSPHATASE-PHOSPHODIESTERASE-1 INHIBITORS AND PHARMACEUTICAL COMPOSITIONS COMPRISING THE SAME” (LigaChem Biosciences Inc., priority 2022, published 2025).

Legend:
ENPP-1 [1] = biological target: T1, ENPP-1 (Homo sapiens, UniProt P22413); assay: ENPP-1 enzyme assay with cGAMP substrate; format: biochemical; details: 200 pM ENPP-1, 10 μM substrate 2′3′-cGAMP, pH 7.4, 37° C., 30 minutes, Transcreener AMP2/GMP2 kit; average IC50
T1 construct: purchased Biovendor RD172124100
T1 sequence (P22413 1-925): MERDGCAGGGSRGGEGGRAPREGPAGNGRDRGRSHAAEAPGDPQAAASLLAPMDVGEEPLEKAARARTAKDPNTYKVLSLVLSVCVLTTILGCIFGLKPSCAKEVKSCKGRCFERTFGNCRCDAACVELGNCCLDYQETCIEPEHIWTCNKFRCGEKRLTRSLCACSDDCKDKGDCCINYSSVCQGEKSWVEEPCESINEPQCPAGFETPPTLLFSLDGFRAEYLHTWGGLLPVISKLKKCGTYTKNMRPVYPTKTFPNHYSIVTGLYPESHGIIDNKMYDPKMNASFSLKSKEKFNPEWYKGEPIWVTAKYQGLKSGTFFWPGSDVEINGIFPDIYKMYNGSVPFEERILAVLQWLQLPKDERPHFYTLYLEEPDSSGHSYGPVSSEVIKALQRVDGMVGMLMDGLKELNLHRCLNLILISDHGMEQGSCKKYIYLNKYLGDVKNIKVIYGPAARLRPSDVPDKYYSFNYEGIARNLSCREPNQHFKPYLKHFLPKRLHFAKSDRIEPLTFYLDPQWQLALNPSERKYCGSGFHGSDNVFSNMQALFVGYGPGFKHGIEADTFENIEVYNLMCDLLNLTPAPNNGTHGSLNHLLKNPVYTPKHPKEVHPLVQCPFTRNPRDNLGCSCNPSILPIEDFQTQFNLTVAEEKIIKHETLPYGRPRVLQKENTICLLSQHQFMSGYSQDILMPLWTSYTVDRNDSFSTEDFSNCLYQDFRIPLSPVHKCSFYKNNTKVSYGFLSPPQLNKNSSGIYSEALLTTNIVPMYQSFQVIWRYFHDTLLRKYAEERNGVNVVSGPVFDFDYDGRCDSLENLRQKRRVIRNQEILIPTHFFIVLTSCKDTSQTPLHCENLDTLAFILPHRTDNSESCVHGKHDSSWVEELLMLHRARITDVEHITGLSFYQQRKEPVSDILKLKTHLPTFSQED
Method: 2′3′-cGAMP is a natural substrate specifically hydrolyzed by ENPP-1, and produces 5′-adenosine monophosphate (AMP) and 5′-guanosine monophosphate (GMP). AMP and GMP produced from the reaction are monitored for ENPP-1 enzyme activity through an AMP^2/GMP^2 ENPP-1 Assay kit (Bellbrook Labs, catalog number 3015).
First, the reaction mixture contains 25 mM Tris-HCl (pH 7.4), 5 mM MgCl2, 0.01% Brij-35, and 1% DMSO. Serially diluted ENPP-1 inhibitors (test compound concentrations ranging from 10 μM to 0.5 nM) are reacted with 200 pM ENPP-1 (Biovendor, catalog number RD172124100) and 10 μM substrate 2′3′-cGAMP at 37° C. for 30 minutes. All assays include a DMSO control without ENPP-1 inhibitor that provides maximal AMP and GMP production. After 30 minutes of this reaction, AMP and GMP production is detected as a measure of ENPP-1 enzymatic activity using the Transcreener® AMP^2/GMP^2 ENPP-1 Assay kit. The detection reagent is a reagent containing 16 nM AMP^2/GMP^2 Antibody-Tb, 25 mM Tris-HCl and 60.1 nM AMP/GMP HiLyte647 Tracer, which is added by 5 μl, mixed well, and incubated at 25° C. for 2 hours.
(§1) The […] signal is measured using a SPARK Cyto plate reader (Tecan). Inhibition (%) is calculated using the following formula: (Max 615:665 ratio-615:665 ratio)/Max 615:665 ratio×100%. % residual ENPP-1 enzyme activity versus IC50 values for ENPP-1 inhibitor concentrations were determined by fitting inhibition curves using the 4-parameter method of GraphPad Prism® software [GraphPad version 9.3.1 for Windows, GraphPad Software, La Jolla California USA, www.graphpad.com].

ENPP-1 [2] = biological target: T1, ENPP-1; assay: ENPP-1 enzyme assay with pNP-TMP substrate; format: biochemical; details: 12.5 ng ENPP-1, 720 μM substrate pNP-TMP, pH 9.0, 37° C., 60 minutes, absorbance 405 nm; average IC50
Method: In order to measure the ENPP-1 inhibitory activity of the compounds according to the present disclosure, the following tests were performed.
ENPP-1 hydrolyzes a variety of substrates, including phosphodiester bonds of nucleotides and nucleotide sugars and pyrophosphate bonds of nucleotides and nucleotide sugars. p-Nitrophenyl 5′-thymidine monophosphate (p-Nph-5′-TMP) is an artificial substrate for 5′-adenosine monophosphate (AMP), which is hydrolyzed by the human recombinant ENPP-1 enzyme. In the above reaction, ENPP-1 enzymatic activity is monitored through the formation of yellow p-nitrophenolate, which absorbs at 405 nm.
First, the reaction mixture contains 100 mM Tris-HCl (pH 9.0), 150 mM NaCl, […], and 1% DMSO. Serially diluted ENPP-1 inhibitors (test compound concentrations ranging from 10 μM to 0.5 nM) are reacted with 12.5 ng of ENPP-1 (Biovendor, catalog number RD172124100) and 720 μM substrate pNP-TMP at 37° C. for 60 minutes. All assays include a DMSO control without ENPP-1 inhibitor that gives maximum absorbance.
as §1, with “After 60 minutes of this reaction, the” for “The”, “an Epoch™ Microplate Spectrophotometer (BioTek Instruments Inc.).” for “a SPARK Cyto plate reader (Tecan).”, “Sample OD405 nm/Max OD405 nm×100%.” for “(Max 615:665 ratio-615:665 ratio)/Max 615:665 ratio×100%.”

Structure (SMILES) | IC50 (ENPP-1 [1]) [nM] | IC50 (ENPP-1 [2]) [nM]
COc1ccc2c(c1)c1ncccc1n2Cc1ccc(P(=O)(O)O)cc1 [Compound 13, (4-((8-methoxy-5H-pyrido[3,2-b]indol-5-yl)methyl)phenyl)phosphonic acid] | < 1000 | < 1000
COc1ccc2c(c1)c1ncccc1n2Cc1ccc(CP(=O)(O)O)cc1 [Compound 14, (4-((8-methoxy-5H-pyrido[3,2-b]indol-5-yl)methyl)benzyl)phosphonic acid] | < 1000 | < 1000
COc1ccc2c(c1)c1ncccc1n2Cc1ccc(S(N)(=O)=O)cc1F [Compound 15, 3-fluoro-4-((8-methoxy-5H-pyrido[3,2-b]indol-5-yl)methyl)benzenesulfonamide] | < 1000 | < 1000
COc1ccc2c(c1)c1ncccc1n2Cc1ccc(S(N)(=O)=O)cc1Cl [Compound 16, 3-chloro-4-((8-methoxy-5H-pyrido[3,2-b]indol-5-yl)methyl)benzenesulfonamide] | < 1000 | < 1000
COc1ccc2c(c1)c1ncccc1n2Cc1ccc(S(C)(=N)=O)cc1F (stereo not shown) [Compound 17, (3-fluoro-4-((8-methoxy-5H-pyrido[3,2-b]indol-5-yl)methyl)phenyl)(imino)(methyl)-l6-sulfanone] | < 1000 | < 1000
COc1ccc2c(c1)c1ncccc1n2Cc1ccc(S(C)(=N)=O)cc1C (stereo not shown) [Compound 18, imino (4-((8-methoxy-5H-pyrido[3,2-b]indol-5-yl)methyl)-3-methylphenyl)(methyl)-l6-sulfanone] | < 1000 | < 1000
COc1ccc2c(c1)c1ncccc1n2Cc1ccc(S(C)(=N)=O)cc1OC (stereo not shown) [Compound 19, imino (3-methoxy-4-((8-methoxy-5H-pyrido[3,2-b]indol-5-yl)methyl)phenyl)(methyl)-l6-sulfanone] | < 1000 | < 1000
COc1ccc2c(c1)c1ncccc1n2Cc1ccc(S(C)(=N)=O)c(F)c1 (stereo not shown) [Compound 20, (2-fluoro-4-((8-methoxy-5H-pyrido[3,2-b]indol-5-yl)methyl)phenyl)(imino)(methyl)-l6-sulfanone] | < 1000 | < 1000
NS(=O)(=O)c1ccc(Cn2c3ccc(Cl)cc3c3ncccc32)cc1 [Compound 21, 4-((8-chloro-5H-pyrido[3,2-b]indol-5-yl)methyl)benzenesulfonamide] | < 1000 | < 1000
NS(=O)(=O)c1ccc(Cn2c3ccc(OC(F)(F)F)cc3c3ncccc32)cc1 [Compound 22, 4-((8-(trifluoromethoxy)-5H-pyrido[3,2-b]indol-5-yl)methyl)benzenesulfonamide] | 1000 to 10000 | < 1000
Cc1ccc2c(c1)c1ncccc1n2Cc1ccc(S(C)(=N)=O)cc1 (stereo not shown) [Compound 23, imino(methyl) (4-((8-methyl-5H-pyrido[3,2-b]indol-5-yl)methyl)phenyl)-l6-sulfanone] | < 1000 | < 1000
CCOc1ccc2c(c1)c1ncccc1n2Cc1ccc(S(C)(=N)=O)cc1 (stereo not shown) [Compound 24, (4-((8-ethoxy-5H-pyrido[3,2-b]indol-5-yl)methyl)phenyl)(imino)(methyl)-l6-sulfanone] | < 1000 | 1000 to 10000
COc1cc(F)c2c(c1)c1ncccc1n2Cc1ccc(S(N)(=O)=O)cc1 [Compound 25, 4-((6-fluoro-8-methoxy-5H-pyrido[3,2-b]indol-5-yl)methyl)benzenesulfonamide] | 1000 to 10000 | < 1000
COc1cc(C)c2c(c1)c1ncccc1n2Cc1ccc(S(N)(=O)=O)cc1 [Compound 26, 4-((8-methoxy-6-methyl-5H-pyrido[3,2-b]indol-5-yl)methyl)benzenesulfonamide] | < 1000 | < 1000
COc1cc(Cl)c2c(c1)c1ncccc1n2Cc1ccc(S(N)(=O)=O)cc1 [Compound 27, 4-((6-chloro-8-methoxy-5H-pyrido[3,2-b]indol-5-yl)methyl)benzenesulfonamide] | 1000 to 10000 | < 1000
COc1cc2c3ncccc3n(Cc3ccc(S(N)(=O)=O)cc3)c2cc1OC [Compound 28, 4-((7,8-dimethoxy-5H-pyrido[3,2-b]indol-5-yl)methyl)benzenesulfonamide] | < 1000 | < 1000
COc1cc2c3ncccc3n(Cc3ccc(S(N)(=O)=O)cc3)c2cc1F [Compound 29, 4-((7-fluoro-8-methoxy-5H-pyrido[3,2-b]indol-5-yl)methyl)benzenesulfonamide] | < 1000 | < 1000
COc1cc2c3ncccc3n(Cc3ccc(S(C)(=N)=O)cc3F)c2cc1F (stereo not shown) [Compound 31, (3-fluoro-4-((7-fluoro-8-methoxy-5H-pyrido[3,2-b]indol-5-yl)methyl)phenyl)(imino)(methyl)-l6-sulfanone] | < 1000 | < 1000
COc1cc2c(cc1F)c1ncccc1n2Cc1ccc(S(C)(=N)=O)cc1 (stereo not shown) [Compound 32, (4-((8-fluoro-7-methoxy-5H-pyrido[3,2-b]indol-5-yl)methyl)phenyl)(imino)(methyl)-l6-sulfanone] | < 1000 | < 1000
COc1cnc2c(c1)c1c(n2Cc2ccc(S(N)(=O)=O)cc2)CNCC1 [Compound 34, 4-((3-methoxy-5,6,7,8-tetrahydro-9H-pyrrolo[2,3-b:5,4-c′]dipyridin-9-yl)methyl)benzene sulfonamide] | > 10000 | > 10000
COc1ccc2c3c(n(Cc4ccc(S(N)(=O)=O)cc4)c2c1)CCNC3 [Compound 35, 4-((7-methoxy-1,2,3,4-tetrahydro-5H-pyrido[4,3-b]indol-5-yl)methyl)benzenesulfonamide] | 1000 to 10000 | < 1000
COc1ccc2c(c1)c1c(n2Cc2ccc(S(N)(=O)=O)cc2)CCNC1 [Compound 36, 4-((8-methoxy-1,2,3,4-tetrahydro-5H-pyrido[4,3-b]indol-5-yl)methyl)benzenesulfonamide] | > 10000 | 1000 to 10000
COc1ccc2c3c(n(Cc4ccc(S(N)(=O)=O)cc4)c2c1)CCCN3 [Compound 37, 4-((7-methoxy-1,2,3,4-tetrahydro-5H-pyrido[3,2-b]indol-5-yl)methyl)benzenesulfonamide] | > 10000 | < 1000
